Test results from US6933260B2, “Avermectin B1 derivatives having an aminosulfonyloxy substituent in the 4′-position” (Syngenta Crop Protection, Inc., priority 2001, dated 2005).

Key:
Format in all cases: in vivo
Plutella xylostella = experiment: Action against Plutella xylostella caterpillars (spray on cabbage plants); settings: 72 h, 12.5 ppm spray, caterpillars in the first stage, 3 days, read-out: percentage reduction in population and percentage reduction in feeding damage (% activity)
Experimental: Young cabbage plants are sprayed with an aqueous emulsion spray mixture comprising 12.5 ppm of test compound. After the spray-coating has dried, the cabbage plants are populated with 10 caterpillars of Plutella xylostella in the first stage and placed in a plastics container. Evaluation is made 3 days later. The percentage reduction in population and the percentage reduction in feeding damage (% activity) are determined by comparing the number of dead caterpillars and the feeding damage on the treated plants with that on the untreated plants.

Diabrotica balteata = experiment: Action against Diabrotica balteata (spray on maize seedlings); settings: 144 h, 12.5 ppm spray, larvae in the second stage, 6 days, read-out: percentage reduction in population (% activity)
Experimental: Maize seedlings are sprayed with an aqueous emulsion spray mixture comprising 12.5 ppm of the test compound and, after the spray-coating has dried, the maize seedlings are populated with 10 Diabrotica balteata larvae in the second stage and then placed in a plastics container. 6 days later, the percentage reduction in population (% activity) is determined by comparing the number of dead larvae on the treated plants with that on untreated plants.

Tetranychus urticae = experiment: Action against Tetranychus urticae (spray on bean plants); settings: 144 h, 12.5 ppm spray, mixed population, 6 days at 25° C., read-out: percentage reduction in population (% activity)
Experimental: Young bean plants are populated with a mixed population of Tetranychus urticae and sprayed one day later with an aqueous emulsion spray mixture comprising 12.5 ppm of test compound. The plants are incubated for 6 days at 25° C. and subsequently evaluated. The percentage reduction in population (% activity) is determined by comparing the number of dead eggs, larvae and adults on the treated plants with that on untreated plants.

Spodoptera littoralis = experiment: Action against Spodoptera littoralis (foliar spray on soybean plants); settings: 72 h, 12.5 ppm spray, caterpillars in the first stage, 3 days, read-out: percentage reduction in population and percentage reduction in feeding damage (% activity)
Experimental: Young soybean plants are sprayed with an aqueous emulsion spray mixture comprising 12.5 ppm of test compound and, after the spray-coating has dried, the plants are populated with 10 caterpillars of Spodoptera littoralis in the first stage and then placed in a plastics container. 3 days later, the percentage reduction in population and the percentage reduction in feeding damage (% activity) are determined by comparing the number of dead caterpillars and the feeding damage on the treated plants with that on untreated plants.

Measured: inhibition at 12.5 ppm

CCNS(=O)(=O)O[C@H]1[C@H](C)O[C@@H](O[C@H]2[C@H](C)O[C@@H](O[C@@H]3/C(C)=C/C[C@@H]4C[C@@H](C[C@]5(C=C[C@H](C)[C@@H](C(C)CC)O5)O4)OC(=O)[C@@H]4C=C(C)[C@@H](O)[C@H]5OC/C(=C\C=C\[C@@H]3C)[C@]54O)C[C@@H]2OC)C[C@@H]1OC (some centres unmarked) [P.3, 4″-ethylaminosulfonyloxy-avermectin B1]
> 80%: Plutella xylostella | Diabrotica balteata | Tetranychus urticae

CCC(C)[C@H]1O[C@]2(C=C[C@@H]1C)C[C@@H]1C[C@@H](C/C=C(\C)[C@@H](O[C@H]3C[C@H](OC)[C@@H](O[C@H]4C[C@H](OC)[C@@H](OS(=O)(=O)NC)[C@H](C)O4)[C@H](C)O3)[C@@H](C)/C=C/C=C3\CO[C@@H]4[C@H](O)C(C)=C[C@@H](C(=O)O1)[C@]34O)O2 (some centres unmarked) [P.2, 4″-methylaminosulfonyloxy-avermectin B1]
> 80%: all assays above

CCC(C)[C@H]1O[C@]2(C=C[C@@H]1C)C[C@@H]1C[C@@H](C/C=C(\C)[C@@H](O[C@H]3C[C@H](OC)[C@@H](O[C@H]4C[C@H](OC)[C@@H](OS(N)(=O)=O)[C@H](C)O4)[C@H](C)O3)[C@@H](C)/C=C/C=C3\CO[C@@H]4[C@H](O)C(C)=C[C@@H](C(=O)O1)[C@]34O)O2 (some centres unmarked) [P.1, 4″-sulfamoyloxy-avermectin B1]
> 80%: all assays above

CCC(C)[C@H]1O[C@]2(C=C[C@@H]1C)C[C@@H]1C[C@@H](C/C=C(\C)[C@@H](O[C@H]3C[C@H](OC)[C@@H](O[C@H]4C[C@H](OC)[C@@H](OS(=O)(=O)N(C)C)[C@H](C)O4)[C@H](C)O3)[C@@H](C)/C=C/C=C3\CO[C@@H]4[C@H](O)C(C)=C[C@@H](C(=O)O1)[C@]34O)O2 (some centres unmarked) [P.7, 4″-dimethylaminosulfonyloxy-avermectin B1]
> 80%: Plutella xylostella | Diabrotica balteata | Tetranychus urticae
